The assay deals with SARS-CoV-2 (wuhan-HU-1 variant). Format: cell-based.

The values that follow come from publication PMC9729598 (Bioorganic Chemistry, 2022).

Take `C=C(C)[C@@H]1CC[C@]2(C(=O)O)CC[C@]3(C)[C@H](CC[C@@H]4[C@@]5(C)CC[C@H](O)C(C)(C)[C@@H]5CC[C@]43C)[C@@H]12` [BA, Betulinic acid]: the “anti-SARS-CoV-2 activity” value was “virtually inactive”.
